Structures are written as SMILES.

A word on the IC50: it is the concentration that inhibits the measured activity by half.

For assay [1], the system named is cGAS activity in THP1 cells. As to the kind of experiment: Cellular assay: ISRE-Gaussia luciferase reporter THP1 cells transfected with ISD (Interferon Stimulatory DNA). Conditions: Homo sapiens, THP-1; ISRE-Gaussia luciferase reporter THP1 cells transfected with 2 μg/mL ISD, 16 hours; read-out: THP1-ISD (Inhibition of cGAS activity in THP1 cells, IC50). It is filed as cell-based. On the procedure: (§1) A reporter THP1 cell line harboring a gene encoding Gaussia Luciferase under the control of 5 tandem repeats of interferon-stimulated response elements (ISRE) was used to test inhibition of cGAS activity by synthetic compounds in human cells. These cells were plated on 96-well plates at 0.3×10^6/well and incubated with various concentrations of compounds or DMSO for 5 min, followed by transfection of 2 μg/mL of ISD (Interferon Stimulatory DNA, a 45 bp DNA oligo) or mock transfected using lipofectamine 2000 (Life Technology) method, according to manufacturer's instructions. 16 hours later, 15 μL of the media from each well is transferred to a new plate, 50 μL of solution containing 50 mM Hepes-NaOH, 50 mM NaCl, 10 mM EDTA, 1 μM of coeleanterazine was added to each well and luminescence was measured immediately. Fold increase in luminescence compared to mock transfection is plotted against concentrations of each compound, and IC50 is calculated using Graphpad. To evaluate the specificity of a compound, the same procedure was performed except that cells were transfected with 2 μg/mL poly(I:C) or infected with Sendai Virus (SeV) at 50 Unit/mL, which are known to activate the RIG-I-MAVS pathway. A specific inhibitory compound should inhibit interferon induction by DNA but have minimal effect on poly(I:C) or Sendai virus induced interferon reporter gene expression.

Another assay relates to RIG-I-MAVS pathway. Put plainly: Specificity assay: ISRE reporter THP1 cells infected with Sendai Virus (SeV). It is filed as cell-based. As to conditions: Homo sapiens, THP-1; ISRE-Gaussia luciferase reporter THP1 cells infected with Sendai Virus (SeV) at 50 Unit/mL. On the procedure:
as §1

In assay [2] the target is T1, recombinant cGAS (aa147-522) (Homo sapiens, UniProt Q8N884).
T1 construct: recombinant cGAS (aa147-522); His6-SUMO (N, cleaved yes); made in house; host or cells: E. coli BL21/pLys
T1 sequence (Q8N884 147-522): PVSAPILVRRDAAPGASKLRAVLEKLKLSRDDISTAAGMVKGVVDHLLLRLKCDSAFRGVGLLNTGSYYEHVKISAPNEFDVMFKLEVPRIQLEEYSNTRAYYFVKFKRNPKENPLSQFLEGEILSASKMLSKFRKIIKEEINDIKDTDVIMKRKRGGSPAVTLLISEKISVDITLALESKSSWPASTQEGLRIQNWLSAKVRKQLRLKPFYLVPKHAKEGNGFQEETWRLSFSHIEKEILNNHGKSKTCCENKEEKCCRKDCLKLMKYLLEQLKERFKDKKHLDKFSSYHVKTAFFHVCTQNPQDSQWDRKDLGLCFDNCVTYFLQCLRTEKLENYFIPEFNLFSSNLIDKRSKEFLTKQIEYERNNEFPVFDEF
Put plainly: In vitro assay for inhibition of cGAS activity (ATP consumption, Kinase Glo). It is filed as biochemical. As to conditions: 37° C. 20 minutes, read-out: Activity (Inhibition of cGAS enzyme activity in vitro, IC50). The method in brief:
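Human cGAS (aa147-522) at 1.5 ng/μL incubated with serially diluted compound at 37° C for 20 min; remaining ATP read by Kinase Glo luminescence. IC50 from percent ATP consumption plotted against log compound concentration.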

Regarding `CN1C(=O)S/C(=C\c2cc(OCc3ccc(N)nc3)c(O)cc2Br)C1=O` [Ex131], the IC50 in assay [1] was 2500 to 10000 nM; in the assay with RIG-I-MAVS pathway, 2500 to 10000 nM; in assay [2] it was 500 to 10000 nM.

In the case of `CCOc1cc(/C=C2\Sc3ncccc3C2=O)c(Br)cc1O` [Ex112], the IC50 in assay [1] was 2500 to 10000 nM; in assay [2], ≤ 500 nM.

For `COCCNc1ncc(COc2cc(/C=C3\Sc4ncccc4C3=O)c(Br)cc2O)cn1` [Ex197], the IC50 was 2500 to 10000 nM in assay [1], ≥ 10000 nM in the assay on RIG-I-MAVS pathway and ≤ 500 nM in assay [2].

Turning to `CCN1C(=O)S/C(=C\c2cc(OC)c(O)cc2Br)C1=O` [Ex39], the IC50 lay within 2500 to 10000 nM in assay [1] and 500 to 10000 nM in assay [2].

For the compound `CN1C(=O)S/C(=C\c2cc(OCc3cnc(N)nc3)c(Oc3cnc(N)s3)cc2Br)C1=O` [Ex211], the IC50 in assay [1] is 2500 to 10000 nM; in the assay on RIG-I-MAVS pathway, ≥ 10000 nM; in assay [2], 500 to 10000 nM.

`CN1C(=O)S/C(=C\c2cc(OCc3cnc([S+](C)[O-])nc3)c(O)cc2Br)C1=O` (stereo not drawn) [Ex213]: the IC50 in assay [1] was 2500 to 10000 nM; in the assay on RIG-I-MAVS pathway, ≥ 10000 nM; in assay [2], ≤ 500 nM.

Consider `O=C1/C(=C/c2cc(OCc3cnc(Cl)nc3)c(O)cc2Br)Sc2ncccc21` [Ex115], for which the IC50 in assay [1] was 2500 to 10000 nM; in assay [2], ≤ 500 nM.

Turning to `CN1C(=O)S/C(=C\c2cc(OCc3cnc([S+](C)[O-])nc3N)c(O)c(F)c2Br)C1=O` (stereo not drawn) [ExA14], the values for the IC50 in assay [1] and in assay [2] were ≥ 10000 nM and ≤ 500 nM, respectively.

As to `Cc1ncc(COc2cc(/C=C3\Sc4ncccc4C3=O)c(Br)c(F)c2O)cn1` [ExA4], the IC50 in assay [1] was ≤ 2500 nM; with RIG-I-MAVS pathway, ≥ 10000 nM; in assay [2], ≤ 500 nM.

For the compound `CN1C(=O)S/C(=C\c2cc(OCc3ccnc4[nH]cnc34)c(O)cc2Br)C1=O` [Ex68], the figures for the IC50 (in assay [1]; in the assay on RIG-I-MAVS pathway; in assay [2]) were ≤ 2500 nM, ≥ 10000 nM and ≤ 500 nM, respectively.

As for `CC(Oc1cc(/C=C2\SC(=O)N(C)C2=O)c(Br)c(F)c1O)c1cnc(Cl)nc1` (stereo not drawn) [ExA6], the IC50 in assay [1] is 2500 to 10000 nM; in the assay on RIG-I-MAVS pathway, 2500 to 10000 nM; in assay [2], ≤ 500 nM.

In the case of `CN1C(=O)S/C(=C\c2cc(O)c(O)cc2Br)C1=O` [Ex11], the IC50 in assay [1] is 2500 to 10000 nM; in assay [2] it was ≥ 10000 nM.

Turning to `CN1C(=O)S/C(=C\c2cc(OCc3cccnc3)c(O)cc2Br)C1=O` [Ex90], the IC50 in assay [1] is 2500 to 10000 nM; in assay [2], ≤ 500 nM.

For `CN1C(=O)S/C(=C\c2cc(OCc3cnc(NCCO)nc3)c(O)c(F)c2Br)C1=O` [Ex152], the values for the IC50 (in assay [1]; with RIG-I-MAVS pathway; in assay [2]) were ≤ 2500 nM, ≥ 10000 nM and ≤ 500 nM, respectively.

Take `O=C1/C(=C/c2cc(OCc3cccnc3)c(O)cc2Br)Sc2ncccc21` [Ex113]: the IC50 in assay [1] is 2500 to 10000 nM; in assay [2] it was ≤ 500 nM.

As to `COc1cc(/C=C2\Sc3ncccc3C2=O)c(Br)cc1O` [Ex45], the IC50 in assay [1] was 2500 to 10000 nM; in assay [2] it was ≤ 500 nM.

Consider `CN1C(=O)S/C(=C\c2cc(OCc3cncnc3N)c(O)c(F)c2Br)C1=O` [ExA17], for which the IC50 is ≥ 10000 nM in assay [1] and ≤ 500 nM in assay [2].

Take `CCOc1cc(/C=C2\SC(=O)N(C)C2=O)c(Br)cc1O` [Ex32]: the figures for the IC50 in assay [1] and in assay [2] were ≤ 2500 nM and ≤ 500 nM, respectively.

For `COc1cc(/C=C2\Sc3ccccc3C2=O)c(Br)cc1O` [Ex44], the IC50 is ≤ 2500 nM in assay [1] and 500 to 10000 nM in assay [2].

Regarding `CN1C(=O)S/C(=C\c2cc(OCC(=O)c3cnc(N)nc3)c(O)c(F)c2Br)C1=O` [ExA10], the values for the 50% inhibitory concentration (IC50) in assay [1] and in assay [2] were 2500 to 10000 nM and 500 to 10000 nM, respectively.

Regarding `COc1cc(/C=c2\sc3nccn3c2=O)c(Br)cc1O` [Ex16], the IC50 in assay [1] was 2500 to 10000 nM; in assay [2], ≤ 500 nM.

As to `COc1cc(/C=C2\SC(=S)N(C)C2=O)c(Br)cc1O` [Ex38], the IC50 in assay [1] was 2500 to 10000 nM; in assay [2], ≤ 500 nM.

Turning to `CN1C(=O)S/C(=C\c2cc(OCc3cnc(NCc4cccnc4)nc3)c(O)c(F)c2Br)C1=O` [Ex189], the IC50 in assay [1] lay within 2500 to 10000 nM; in assay [2], 500 to 10000 nM.

For `COc1cc(/C=C2\SC(=O)N(C)C2=O)c(Cl)cc1O` [Ex30], the IC50 is ≤ 2500 nM in assay [1] and ≤ 500 nM in assay [2].

As for `COc1cc(/C=C2\SC(=O)N(C)C2=O)c(Br)cc1NS(=O)(=O)c1ccccn1` [Ex21], the IC50 in assay [1] is 2500 to 10000 nM; in assay [2], ≥ 10000 nM.

For the compound `C#CCOc1cc(/C=C2\SC(=O)N(C)C2=O)c(Br)cc1O` [Ex33], the IC50 in assay [1] fell in the range of 2500 to 10000 nM; in assay [2], 500 to 10000 nM.

As to `CN1C(=O)S/C(=C\c2cc(OCc3ccncc3)c(O)cc2Br)C1=O` [Ex53], the IC50 is ≤ 2500 nM in assay [1] and 500 to 10000 nM in assay [2].

With `COc1cc(/C=C2\SC(=O)N(C)C2=O)c(Br)cc1NS(=O)(=O)c1cnc(N)s1` [Ex61], the results for the IC50 in assay [1] and in assay [2] were ≤ 2500 nM and 500 to 10000 nM, respectively.

Regarding `Nc1ncc(COc2cc(/C=c3\sc4nccn4c3=O)c(Br)cc2O)cn1` [ExA11], the IC50 in assay [1] was ≤ 2500 nM; in assay [2], 500 to 10000 nM.

`CN1C(=O)S/C(=C\c2cc(OCc3cncnc3)c(O)c(F)c2Br)C1=O` [Ex185]: the IC50 was 2500 to 10000 nM in assay [1] and ≤ 500 nM in assay [2].

Regarding `CC(Oc1cc(/C=C2\SC(=O)N(C)C2=O)c(Br)c(F)c1O)c1cncnc1N` (stereo not drawn) [ExA18], the values for the 50% inhibitory concentration (IC50) in assay [1] and in assay [2] were ≥ 10000 nM and 500 to 10000 nM, respectively.

In the case of `CC(Oc1cc(/C=C2\Sc3ncccc3C2=O)c(Br)cc1O)c1cnc(NCCO)nc1` (stereo not drawn) [ExA9], the figures for the IC50 in assay [1] and in assay [2] were 2500 to 10000 nM and ≤ 500 nM, respectively.

`CC(Oc1cc(/C=C2\Sc3ncccc3C2=O)c(Br)c(F)c1O)c1cnc(N)nc1` (stereo not drawn) [Ex124]: the results for the IC50 in assay [1] and in assay [2] were 2500 to 10000 nM and ≤ 500 nM, respectively.

Turning to `Cc1ncc(COc2cc(/C=C3\Sc4ncccc4C3=O)c(Br)cc2O)cn1` [Ex114], the values for the IC50 in assay [1] and in assay [2] were 2500 to 10000 nM and ≤ 500 nM, respectively.

As for `CN1C(=O)S/C(=C\c2cc(OCc3cnc(Cl)nc3)c(O)c(F)c2Br)C1=O` [Ex107], the IC50 in assay [1] was in the range of 2500 to 10000 nM; in assay [2], 500 to 10000 nM.

Take `CN1C(=O)S/C(=C\c2cc(OCCc3cnc(N)nc3)c(O)cc2Br)C1=O` [Ex82]: the IC50 is ≤ 2500 nM in assay [1] and ≤ 500 nM in assay [2].

Regarding `CN1C(=O)S/C(=C\c2cc(OCc3cccc4[nH]ccc34)c(O)cc2Br)C1=O` [Ex67], the IC50 in assay [1] was 2500 to 10000 nM; in assay [2], 500 to 10000 nM.

As for `CN1C(=O)S/C(=C\c2cc(OCc3cccnc3)c(O)c(F)c2Br)C1=O` [Ex106], the IC50 was 2500 to 10000 nM in assay [1] and ≤ 500 nM in assay [2].

In the case of `Cc1ncc(COc2cc(/C=C3\SC(=O)N(C)C3=O)c(Br)c(F)c2O)c(N)n1` [ExA5], the values for the IC50 in assay [1] and in assay [2] were 2500 to 10000 nM and ≤ 500 nM, respectively.

With `CC(Oc1cc(/C=c2\sc3nccn3c2=O)c(Br)c(F)c1O)c1cnc(N)nc1` (stereo not drawn) [ExA12], the IC50 is ≥ 10000 nM in assay [1] and 500 to 10000 nM in assay [2].

Regarding `CN1C(=O)S/C(=C\c2cc(OCc3cnc(Cl)nc3N)c(O)c(F)c2Br)C1=O` [ExA19], the results for the concentration for half-maximal inhibition (IC50) in assay [1] and in assay [2] were 2500 to 10000 nM and ≤ 500 nM, respectively.

For the compound `Cc1nc(N)ncc1COc1cc(/C=C2\Sc3ncccc3C2=O)c(Br)cc1O` [Ex116], the IC50 in assay [1] was ≤ 2500 nM; in assay [2], ≤ 500 nM.

As for `Nc1ncc(COc2cc(/C=C3\Sc4ncccc4C3=O)c(Br)cc2O)c(C2CC2)n1` [Ex117], the IC50 is 2500 to 10000 nM in assay [1] and ≤ 500 nM in assay [2].

With `CC(Oc1cc(/C=C2\Sc3ncc(F)cc3C2=O)c(Br)c(F)c1O)c1cnc(N)nc1` (stereo not drawn) [ExA13], the half-maximal inhibitory concentration (IC50) in assay [1] is 2500 to 10000 nM; in assay [2], ≤ 500 nM.

The values above are taken from patent US12065416B2, “cGAS antagonist compounds” (IMMUNESENSOR THERAPEUTICS, INC., priority 2016, dated 2024).
